Holding throughout (assay): DTP human tumour cell line panel, 48 h
Assay [1] relates to UACC-62.
In assay [2] the test system is HCC 2998.
In assay [3] the test system is OVCAR-3.
Assay [4] relates to SN12C.
Assay [5] deals with SW-620.
For assay [6], the system named is K562.
Assay [7] relates to HCT-15.
In assay [8] the test system is MDA-N.
Assay [9] concerns Hs-578T.
Assay [10] concerns T47D.
Assay [11] concerns NCI-H23.
The subject of assay [12] is UACC-257.
The test system of assay [13] is TK-10.
Assay [14] concerns OVCAR-5.
Assay [15] relates to SF-539.
Assay [16] has as its system SF-295.
The subject of assay [17] is SK-MEL-2.
Assay [18] deals with MCF7.
The test system of assay [19] is MDA-MB-231.
Assay [20] concerns A498.

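All cell lines were grown in 96-well plates and treated with compound for 48 hours. GI50 = concentration required for 50% inhibition of growth.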 Active and inactive are the calls of the source. No stated cut-off is given here; in the data, active = GI50 up to about 1.1 µM and inactive = higher. Where a SMILES comes first, the peptide text is derived from it. [ ]: non-standard residue; d: D form. The star is where a group is joined. Chg = N[CH](C(=O)O)C1CCCCC1; Cbz = O=C(OCc1ccccc1)*; OBn = c1ccc(CO*)cc1

Usually GI50 stands for the concentration that inhibits growth by half. Regarding `O=c1c2ccccc2nc(-c2cc3c(cc2Cl)Sc2nccn2S3(=O)=O)n1-c1ccccc1`, the GI50 in assay [1] is 26.4 µM (inactive); in [2] it was 15.1 µM (inactive); in assay [3], 15.9 µM (inactive); in assay [4], 45.5 µM (inactive); in [5], 13.5 µM (inactive); in assay [6], 18.8 µM (inactive). Besides, the GI50 was 12.9 µM in assay [7]; 15.6 µM (inactive) in assay [8]; 12.2 µM (inactive) in [9]; 8.93 µM (inactive) in [10]; 62.5 µM (inactive) in assay [11]; 18 µM (inactive) in assay [12]. Besides, the GI50 in assay [13] is 21.5 µM (inactive); in [14], > 100 µM (inactive); in assay [15] it was 20.4 µM (inactive); in assay [16], 21.6 µM (inactive); in assay [17], 18.5 µM (inactive); in assay [18], 14.2 µM (inactive). For the same molecule, the GI50 in assay [19] was 18.4 µM (inactive).

On to `Cn1c2ccc(C3=NCCN3)cc2c2cc(C3=NCCN3)ccc21`, for which the GI50 was 42 µM (inactive) in assay [3]; 6.31 µM (inactive) in assay [4]; 17.6 µM (inactive) in assay [5]; 26.4 µM (inactive) in assay [6]; > 100 µM (inactive) in [20]; greater than 100 µM in assay [7]. The GI50 in [8] is 53.1 µM (inactive); in assay [9] it was 10.7 µM (inactive); in [10], 7.89 µM (inactive); in [11] it was 4.16 µM (inactive); in [12], 43.8 µM (inactive); in assay [13], 60.3 µM (inactive). In addition, the GI50 is 38.4 µM (inactive) in assay [14]; 29.4 µM (inactive) in assay [15]; 42.8 µM (inactive) in [16]; 33.5 µM (inactive) in assay [17]; 41.2 µM (inactive) in assay [19].

Turning to `O=C(NCCCCNCCCNC(=O)C(F)(F)F)C(F)(F)F`, the GI50 in assay [1], in assay [2], in assay [3], in assay [4], in [5] and in assay [6] was > 100 µM (inactive) in each case. In addition, the GI50 in assay [20] is > 100 µM (inactive); in assay [7] it was greater than 100 µM; in assay [9], > 100 µM (inactive); in assay [10], > 100 µM (inactive); in assay [11], > 100 µM (inactive); in assay [12], > 100 µM (inactive). The GI50 in assay [13] was > 100 µM (inactive); in assay [14], > 100 µM (inactive); in assay [15], > 100 µM (inactive); in assay [16], 32.6 µM (inactive); in assay [17], > 100 µM (inactive); in assay [18], > 100 µM (inactive). Further, in assay [19], the GI50 is > 100 µM (inactive).

Take `CCn1c(CCl)nc2c1C(=O)c1ccccc1C2=O`: the GI50 was 1.28 µM (inactive) in [1]; 1.56 µM (inactive) in assay [2]; 1.69 µM (inactive) in assay [3]; 1.6 µM (inactive) in assay [4]; 1.33 µM (inactive) in [5]; 2.36 µM (inactive) in assay [6]. For the same molecule, the GI50 was 1.66 µM in [7]; 2.17 µM (inactive) in [8]; 2.29 µM (inactive) in assay [9]; 1.95 µM (inactive) in assay [10]; 1.4 µM (inactive) in [11]; 1.67 µM (inactive) in [12]. For the same molecule, the GI50 was 2.51 µM (inactive) in assay [13]; 1.84 µM (inactive) in assay [14]; 2.23 µM (inactive) in assay [15]; 1.88 µM (inactive) in assay [16]; 1.87 µM (inactive) in assay [18].

Consider `O=C(OCc1ccccc1)N1CCCc2c(n(S(=O)(=O)c3ccccc3)c3ccccc23)C1`, for which the GI50 in [1], in assay [3], in assay [4], in [5], in [6] and in assay [20] was > 100 µM (inactive) in each case. Further, the GI50 was greater than 100 µM in assay [7]; > 100 µM (inactive) in assay [8]; 78.7 µM (inactive) in assay [9]; 14.2 µM (inactive) in assay [10]; > 100 µM (inactive) in assay [11]; > 100 µM (inactive) in assay [12]. Moreover, the GI50 in assay [13] was > 100 µM (inactive); in [14], > 100 µM (inactive); in [15] it was > 100 µM (inactive); in assay [16] it was 36.6 µM (inactive); in assay [17] it was > 100 µM (inactive); in assay [18], > 100 µM (inactive). Moreover, the GI50 in [19] was > 100 µM (inactive).

Consider `CCOC(=O)c1cnc(-n2[nH]c3c(c2=O)CCCC3)[nH]c1=O`, for which the GI50 in assay [1] was 29.6 µM (inactive); in assay [4], 52.5 µM (inactive); in [5], 35.2 µM (inactive); in assay [6] it was 20.7 µM (inactive); in [20], 62.8 µM (inactive); in assay [7] it was 44.1 µM. For the same molecule, the GI50 in [8] was 86.1 µM (inactive); in [9] it was > 100 µM (inactive); in assay [10], > 100 µM (inactive); in [11], 72.8 µM (inactive); in assay [12], 32.4 µM (inactive); in assay [13], > 100 µM (inactive). For the same molecule, the GI50 is 82.4 µM (inactive) in [14]; 48.1 µM (inactive) in assay [15]; 62.7 µM (inactive) in assay [16]; 42.6 µM (inactive) in assay [17]; 57.1 µM (inactive) in [19].

As for `C=C(CN(C)C)C(=O)c1ccccc1OC`, the GI50 in assay [1] was 21 µM (inactive); in assay [2] it was 34.6 µM (inactive); in [3], 16 µM (inactive); in [4], 18.9 µM (inactive); in assay [5], 4.31 µM (inactive); in assay [6] it was 4.35 µM (inactive). The GI50 in assay [20] was 28.4 µM (inactive); in [7], 15.9 µM; in assay [8] it was 18.2 µM (inactive); in [9] it was 20.7 µM (inactive); in assay [10] it was 15 µM (inactive); in [11], 17.9 µM (inactive). Besides, the GI50 is 15.6 µM (inactive) in assay [12]; 16.1 µM (inactive) in assay [13]; 19.1 µM (inactive) in assay [14]; 15.6 µM (inactive) in [15]; > 56.9 µM (inactive) in assay [16]; 14.4 µM (inactive) in assay [17]. The GI50 in assay [19] is 14.4 µM (inactive).

`O=C1C=CN(C2OC(CO)C(O)C2O)C(=O)C1` (centres undefined): the GI50 in assay [1] was 50.4 µM (inactive); in assay [3] it was 692 µM (inactive); in [4] it was 10 µM (inactive); in assay [5], 32.5 µM (inactive); in assay [6], 1.58 µM (inactive); in assay [20], 867 µM (inactive). Also, the GI50 in assay [7] was 17.9 µM; in assay [8], 62.5 µM (inactive); in assay [9] it was 126 µM (inactive); in assay [10], 173 µM (inactive); in assay [12], 1130 µM (inactive); in assay [13] it was 2210 µM (inactive). Also, the GI50 in [14] was 1350 µM (inactive); in [15] it was 91.6 µM (inactive); in assay [18] it was 7.76 µM (inactive); in assay [19], 363 µM (inactive).

Take `CN1/C(=C\N=O)C(C)(C)N(O)C1(C)C`: the GI50 in [1], in assay [2], in assay [3], in [4], in assay [5] and in [6] was > 100 µM (inactive) each time. For the same molecule, the GI50 in [7] is greater than 100 µM; in [8], > 100 µM (inactive); in assay [9], > 100 µM (inactive); in assay [10] it was > 100 µM (inactive); in assay [11], > 100 µM (inactive); in assay [12], > 100 µM (inactive). The GI50 in [13], in assay [14], in [15], in assay [16], in assay [17] and in [18] was > 100 µM (inactive) each time. For the same molecule, the GI50 in assay [19] was > 100 µM (inactive).

Consider `CCOP(=O)(O)CN1CCNCCN(CP(=O)(O)OCC)CCNCC1`, for which the GI50 in assay [1], in assay [3], in assay [4], in assay [5], in assay [6] and in [20] was > 100 µM (inactive) each time. The concentration for 50% growth inhibition (GI50) is greater than 100 µM in assay [7]; > 100 µM (inactive) in assay [8]; > 100 µM (inactive) in assay [9]; > 100 µM (inactive) in [10]; > 100 µM (inactive) in assay [12]; > 100 µM (inactive) in assay [13]. Moreover, the GI50 in assay [14], in assay [15], in [16], in [17], in assay [18] and in assay [19] was > 100 µM (inactive) each time.

As to `COC(=O)C(NC(=O)C(CC(=O)OCc1ccccc1)NC(=O)OCc1ccccc1)C1CCCCC1` (centres undefined) (Cbz-Asp(OBn)-[Chg]-OMe; configuration not given here), the GI50 in assay [1], in assay [2], in assay [3], in assay [4], in assay [5] and in assay [6] was > 100 µM (inactive) throughout. Moreover, the GI50 was greater than 100 µM in assay [7]; > 100 µM (inactive) in assay [8]; < 0.01 µM (active) in [9]; 48 µM (inactive) in assay [10]; > 100 µM (inactive) in [11]; > 100 µM (inactive) in assay [12]. Moreover, the GI50 in [13] was > 100 µM (inactive); in assay [14] it was > 100 µM (inactive); in [15], 59.7 µM (inactive); in [16], 67.3 µM (inactive); in assay [17], 51.9 µM (inactive); in assay [18] it was > 100 µM (inactive). The GI50 in assay [19] was 84.3 µM (inactive).

The record behind these values is ChEMBL document CHEMBL1201862, “PubChem BioAssay data set” (2004).
